From patent US20190381017A1, “Compositions Comprising Serdexmethylphenidate Conjugates And Methods Of Use Thereof” (KemPharm, Inc., priority 2018, published 2019)
Where a name gives a salt, the structure may show the parent alone.

Key:
[1] = system: recreational stimulant users; assay: Treatment-emergent adverse events, intravenous study (Example 2); details: SDX Cl 30 mg (N=31), d-MPH HCl 15 mg (N=30)
Procedure: A study was conducted in humans to assess the intravenous abuse potential of serdexmethylphenidate relative to unconjugated d-methylphenidate and placebo in recreational stimulant abusers. This was a Phase 1, randomized, double-blind study in which serdexmethylphenidate and d-methylphenidate were administered intravenously in recreational stimulant users with a history of non-oral abuse. In Part A of the study, subjects (Cohort 1) participated in a dose-escalation phase to determine the optimal dose of intravenous d-methylphenidate based on tolerability and abuse-related pharmacodynamic assessments. […] The doses of serdexmethylphenidate and d-methylphenidate are equivalent with respect to molar amount of d-methylphenidate. FDA-recommended abuse potential measures and blood samples were collected at different times after dosing. Safety assessments were performed throughout the study.

[2] = system: recreational stimulant users; assay: Intravenous abuse potential, VAS pharmacodynamic scores (Example 2); assay type: in vivo, human
From the text: “Drug liking” score, used herein, is the score used to assess the degree that a human participant likes a drug effect at the time the question is being asked (that is, at the moment). It is scored using a 0 to 100 point bipolar visual analogue scale (VAS) anchored in the center with a neutral anchor of “neither like nor dislike” (score of 50), on the left with “strong disliking” (score of 0) and on the right with “strong liking” (score of 100).
“Euphoria” or “Feeling High” score, used herein, is the term to describe the score used to assess the degree that a human participant is high at the time the question is being asked (that is, at the moment). It is scored using a 0 to 100 point unipolar visual analogue scale (VAS) anchored on the left with “Not at All” (score of 0) and on the right with “Extremely” (score of 100).
“Take Drug Again” score, used herein, is the term to describe the score used to assess the degree that a human participant wants to take the drug again, if given the opportunity, based on his/her opinion now, i.e., at the time the question is being asked. It is scored using a 0 to 100 point unipolar visual analogue scale (VAS) anchored on the left with “Definitely Would Not” (score of 0) and on the right with “Definitely Would” (score of 100).
“Overall Drug Liking” score, used herein, is the term to describe the score used to assess the human subject's global perception of drug liking (i.e., the subjective effects over the whole course of the drug experience including any carryover effects). Subjects respond to the statement “Overall, my liking for this drug is.” The question is scored using a 0-100 point bipolar VAS anchored on the left with “Strong Disliking” (score of 0); “Neither Like nor Dislike” (score of 50) in the middle, and anchored on the right with “Strong Liking” (score of 100). This scale has the advantage of the human subject being relatively less affected or unaffected by acute study drug effects (if any) by the time of the assessment.
“Good Effects” score, used herein, is the term to describe the score used to assess the degree that a human participant is feeling good drug effects at the time the question is being asked (that is, at the moment). Subjects respond to the statement “At this moment, I can feel good drug effects.” It is scored using a 0 to 100 point unipolar visual analogue scale (VAS) anchored on the left with “Not at All” (score of 0) and on the right with “Extremely” (score of 100).
Safety assessments were performed throughout the study.

[3] = SDX Cl 30 mg, d-MPH HCl 15 mg, 12 hours
[4] = SDX Cl 30 mg, d-MPH HCl 15 mg, 12 hours, unipolar VAS
[5] = SDX Cl 30 mg, d-MPH HCl 15 mg, 24 hours
[6] = SDX Cl 30 mg, d-MPH HCl 15 mg, 24 hours, unipolar VAS
[7] = SDX Cl 30 mg, d-MPH HCl 15 mg, bipolar VAS
[8] = SDX Cl 30 mg, d-MPH HCl 15 mg, unipolar VAS
[9] = d-MPH HCl 15 mg vs SDX Cl 30 mg, bipolar VAS
[10] = d-MPH HCl 15 mg vs SDX Cl 30 mg, unipolar VAS
[11] = SDX Cl 30 mg vs placebo, bipolar VAS
[12] = SDX Cl 30 mg vs placebo, unipolar VAS

COC(=O)[C@H](c1ccccc1)[C@H]1CCCCN1 [d-methylphenidate hydrochloride, d-threo-methylphenidate hydrochloride]
TEAE Change in sustained attention, % of subjects [1]: (6.7) % | TEAE Change in sustained attention, n subjects [1]: 2 | TEAE Dry mouth, % of subjects [1]: (20.0) % | TEAE Dry mouth, n subjects [1]: 6 | TEAE Energy increased, % of subjects [1]: (3.3) % | TEAE Energy increased, n subjects [1]: 1 | TEAE Euphoric mood, % of subjects [1]: (56.7) % | TEAE Euphoric mood, n subjects [1]: 17 | TEAE Feeling abnormal, % of subjects [1]: (6.7) % | TEAE Feeling abnormal, n subjects [1]: 2 | TEAE Feeling hot, % of subjects [1]: (20.0) % | TEAE Feeling hot, n subjects [1]: 6 | TEAE Feeling jittery, % of subjects [1]: (6.7) % | TEAE Feeling jittery, n subjects [1]: 2 | TEAE Feeling of relaxation, % of subjects [1]: (3.3) % | TEAE Feeling of relaxation, n subjects [1]: 1 | TEAE Headache, % of subjects [1]: (3.3) % | TEAE Headache, n subjects [1]: 1 | TEAE Heart rate increased, % of subjects [1]: (16.7) % | TEAE Heart rate increased, n subjects [1]: 5 | TEAE Hyperhidrosis (sweaty hands), % of subjects [1]: (13.3) % | TEAE Hyperhidrosis (sweaty hands), n subjects [1]: 4 | TEAE Hypervigilance, % of subjects [1]: (33.3) % | TEAE Hypervigilance, n subjects [1]: 10 | TEAE Nausea, % of subjects [1]: (10.0) % | TEAE Nausea, n subjects [1]: 3 | TEAE Palpitations, % of subjects [1]: (6.7) % | TEAE Palpitations, n subjects [1]: 2 | TEAE Paraesthesia (tingling), % of subjects [1]: (6.7) % | TEAE Paraesthesia (tingling), n subjects [1]: 2 | TEAE Sinus tachycardia, % of subjects [1]: (13.3) % | TEAE Sinus tachycardia, n subjects [1]: 4 | TEAE Somnolence, % of subjects [1]: (13.3) % | TEAE Somnolence, n subjects [1]: 4 | TEAE Tachycardia, % of subjects [1]: (13.3) % | TEAE Tachycardia, n subjects [1]: 4 | Mean Overall Drug Liking [2, 3]: 68.0 | Median Overall Drug Liking [2, 3]: 73.0 | Mean Take Drug Again [2, 4]: 61.3 | Median Take Drug Again [2, 4]: 69.5 | Mean Overall Drug Liking [2, 5]: 67.3 | Median Overall Drug Liking [2, 5]: 70.5 | Mean Take Drug Again [2, 6]: 54.9 | Median Take Drug Again [2, 6]: 58.5 | Drug Liking Emax (median) [2, 7]: 84.5 | Overall Drug Liking Emax (mean) [2, 7]: 72.4 | Overall Drug Liking Emax (median) [2, 7]: 74.0 | Feeling High Emax (mean) [2, 8]: 77.4 | Feeling High Emax (median) [2, 8]: 79.0 | Good Effects Emax (mean) [2, 8]: 82.1 | Good Effects Emax (median) [2, 8]: 85.0 | Take Drug Again Emax (mean) [2, 8]: 63.3 | Take Drug Again Emax (median) [2, 8]: 72.5 | Median difference Drug Liking Emax [2, 9]: 29.0 | Median difference Overall Drug Liking, 12 hours [2, 9]: 16.0 | Median difference Overall Drug Liking, 24 hours [2, 9]: 13.5 | Median difference Overall Drug Liking, Emax [2, 9]: 18.0 | Mean difference Take Drug Again, 12 hours [2, 10]: 43.3 | Mean difference Take Drug Again, 24 hours [2, 10]: 39.2 | Mean difference Take Drug Again, Emax [2, 10]: 43.1 | Median difference Feeling High Emax [2, 10]: 67.0 | Median difference Good Effects Emax [2, 10]: 73.0

COC(=O)[C@H](c1ccccc1)[C@H]1CCCCN1C(=O)OC[n+]1cccc(C(=O)N[C@@H](CO)C(=O)O)c1.[Cl-] [serdexmethylphenidate chloride]
TEAE Change in sustained attention, % of subjects [1]: (0.0) % | TEAE Change in sustained attention, n subjects [1]: 0 | TEAE Dry mouth, % of subjects [1]: (0.0) % | TEAE Dry mouth, n subjects [1]: 0 | TEAE Energy increased, % of subjects [1]: (6.5) % | TEAE Energy increased, n subjects [1]: 2 | TEAE Euphoric mood, % of subjects [1]: (12.9) % | TEAE Euphoric mood, n subjects [1]: 4 | TEAE Feeling abnormal, % of subjects [1]: (3.2) % | TEAE Feeling abnormal, n subjects [1]: 1 | TEAE Feeling hot, % of subjects [1]: (6.5) % | TEAE Feeling hot, n subjects [1]: 2 | TEAE Feeling jittery, % of subjects [1]: (0.0) % | TEAE Feeling jittery, n subjects [1]: 0 | TEAE Feeling of relaxation, % of subjects [1]: (0.0) % | TEAE Feeling of relaxation, n subjects [1]: 0 | TEAE Headache, % of subjects [1]: (3.2) % | TEAE Headache, n subjects [1]: 1 | TEAE Heart rate increased, % of subjects [1]: (0.0) % | TEAE Heart rate increased, n subjects [1]: 0 | TEAE Hyperhidrosis (sweaty hands), % of subjects [1]: (3.2) % | TEAE Hyperhidrosis (sweaty hands), n subjects [1]: 1 | TEAE Hypervigilance, % of subjects [1]: (12.9) % | TEAE Hypervigilance, n subjects [1]: 4 | TEAE Nausea, % of subjects [1]: (0.0) % | TEAE Nausea, n subjects [1]: 0 | TEAE Palpitations, % of subjects [1]: (0.0) % | TEAE Palpitations, n subjects [1]: 0 | TEAE Paraesthesia (tingling), % of subjects [1]: (0.0) % | TEAE Paraesthesia (tingling), n subjects [1]: 0 | TEAE Sinus tachycardia, % of subjects [1]: (0.0) % | TEAE Sinus tachycardia, n subjects [1]: 0 | TEAE Somnolence, % of subjects [1]: (3.2) % | TEAE Somnolence, n subjects [1]: 1 | TEAE Tachycardia, % of subjects [1]: (0.0) % | TEAE Tachycardia, n subjects [1]: 0 | Mean difference Overall Drug Liking, 12 hours [2, 11]: 2.8 | Mean difference Overall Drug Liking, 24 hours [2, 11]: 1.2 | Mean difference Overall Drug Liking, Emax [2, 11]: 1.4 | Median difference Drug Liking Emax [2, 11]: 0.5 | Mean difference Feeling High Emax [2, 12]: 3.4 | Mean difference Good Effects Emax [2, 12]: 2.2 | Mean difference Take Drug Again, 12 hours [2, 12]: 9.1 | Mean difference Take Drug Again, 24 hours [2, 12]: 1.4 | Mean difference Take Drug Again, Emax [2, 12]: 6.0 | Mean Overall Drug Liking [2, 3]: 53.3 | Median Overall Drug Liking [2, 3]: 50.0 | Mean Take Drug Again [2, 4]: 17.5 | Median Take Drug Again [2, 4]: 0.0 | Mean Overall Drug Liking [2, 5]: 54.8 | Median Overall Drug Liking [2, 5]: 50.0 | Mean Take Drug Again [2, 6]: 15.7 | Median Take Drug Again [2, 6]: 0.0 | Drug Liking Emax (mean) [2, 7]: 56.6 | Drug Liking Emax (median) [2, 7]: 50.5 | Overall Drug Liking Emax (mean) [2, 7]: 55.2 | Overall Drug Liking Emax (median) [2, 7]: 50.0 | Feeling High Emax (mean) [2, 8]: 14.5 | Feeling High Emax (median) [2, 8]: 0.0 | Good Effects Emax (mean) [2, 8]: 15.5 | Good Effects Emax (median) [2, 8]: 0.0 | Take Drug Again Emax (mean) [2, 8]: 19.6 | Take Drug Again Emax (median) [2, 8]: 0.0
